Source: the supplement of paper PMC10307832

How the values were obtained:
Assay in all cases: relative viability (nuclei count vs DMSO), 5 days (fraction); higher = more cells survive
[1] = compound: CN(C)C/C=C/C(=O)Nc1cc2c(Nc3ccc(F)c(Cl)c3)ncnc2cc1O[C@H]1CCOC1 [Afatinib] + O=C(CCCCCCC(=O)Nc1ccccc1)NO [Vorinostat] (partner 1 µM)
Outline: (§1)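 Lung cancer cell lines were seeded in 1536-well plates and dosed by pin tool the next day, with either a single drug or a fixed anchor-drug dose combined with five library-drug doses (not always all listed) spaced in √10 steps. Five days later, one step fixed the cells and stained their nuclei (final 0.05% Triton X-100, 1% formaldehyde, 1 ug/ml Hoechst), and nuclei were counted on 4× images. Relative viability is the nuclei count in treated wells divided by the count in vehicle wells, and each value is the median of duplicate plates.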

[2] = compound: CN(C)C/C=C/C(=O)Nc1cc2c(Nc3ccc(F)c(Cl)c3)ncnc2cc1O[C@H]1CCOC1 [Afatinib] + C[C@]1(O)C[C@@H](c2nc(-c3ccc4ccc(-c5ccccc5)nc4c3)c3c(N)nccn32)C1 [Linsitinib] (partner 1 µM)
Outline: as §1

[3] = compound: CN(C)C/C=C/C(=O)Nc1cc2c(Nc3ccc(F)c(Cl)c3)ncnc2cc1O[C@H]1CCOC1 [Afatinib] + CC1(C)CCC(c2ccc(Cl)cc2)=C(CN2CCN(c3ccc(C(=O)NS(=O)(=O)c4ccc(N[C@H](CCN5CCOCC5)CSc5ccccc5)c(S(=O)(=O)C(F)(F)F)c4)cc3)CC2)C1 [Navitoclax] (partner 0.5 µM)
Outline: as §1

[4] = compound: CN(C)C/C=C/C(=O)Nc1cc2c(Nc3ccc(F)c(Cl)c3)ncnc2cc1O[C@H]1CCOC1 [Afatinib] + Cc1nc(NC(=O)N2CCC[C@H]2C(N)=O)sc1-c1ccnc(C(C)(C)C(F)(F)F)c1 [Alpelisib] (partner 2 µM)
Outline: as §1

Cell Line	relative viability ([1]; first compound 0.005 µM)	relative viability ([1]; first compound 0.01581 µM)	relative viability ([1]; first compound 0.05 µM)	relative viability ([1]; first compound 0.1581 µM)	relative viability ([1]; first compound 0.5 µM)	relative viability ([2]; first compound 0.005 µM)	relative viability ([2]; first compound 0.01581 µM)	relative viability ([2]; first compound 0.05 µM)	relative viability ([2]; first compound 0.1581 µM)	relative viability ([2]; first compound 0.5 µM)	relative viability ([3]; first compound 0.005 µM)	relative viability ([3]; first compound 0.01581 µM)	relative viability ([3]; first compound 0.05 µM)	relative viability ([3]; first compound 0.1581 µM)	relative viability ([3]; first compound 0.5 µM)	relative viability ([4]; first compound 0.005 µM)	relative viability ([4]; first compound 0.01581 µM)	relative viability ([4]; first compound 0.05 µM)	relative viability ([4]; first compound 0.1581 µM)	relative viability ([4]; first compound 0.5 µM)
LC-2-ad	0.767	0.717	0.705	0.662	0.78	0.935	0.817	0.794	0.696	0.682	0.483	0.458	0.419	0.322	0.32	0.892	0.441	0.819	0.687	0.784
HCC-15	0.904	0.92	0.816	0.785	0.887	0.845	0.894	0.849	0.854	0.788	0.682	0.719	0.745	0.684	0.686	0.855	0.816	0.902	0.855	0.889
NCI-H2405	1.2	0.848	0.976	0.953	0.938	0.808	0.875	0.963	0.836	0.906	0.857	0.879	0.912	0.715	1.07	0.703	0.804	0.875	0.708	0.913
LXF-289	0.762	0.678	0.748	0.753	0.716	1	0.927	0.947	0.851	0.947	0.975	0.885	0.91	0.927	0.963	0.97	1.01	1.02	0.919	0.975
